Activity calls are given as the source filed them. The calls are words filed in the database; no cut-off is given here.
Assays:
[1] = tested on: SJSA-1; experiment: cells; conditions: Homo sapiens, SJSA-1, 16 h
[2] = Drug metabolism in dog hepatocytes treated with 4-(2-((3R,5R,6S)-1-((S)-2-(tert-Butylsulfonyl)-1-cyclopropylethyl)-6-(4-chloro-3-fluorophenyl)-5-(3-chlorophenyl)-3-methyl-2-oxopiperidin-3-yl)acetamido)-2-methoxybenzoic acid at 10 uM after 2 hrs by LC/MS analysis; assay type: ADME, cell-based, Canis lupus familiaris, Hepatocyte
[3] = Drug metabolism in dog hepatocytes treated with AMG 232 at 10 uM after 2 hrs by LC/MS analysis; assay type: ADME, cell-based, Canis lupus familiaris, Hepatocyte
[4] = Drug metabolism in rat hepatocytes treated with AMG 232 at 10 uM after 2 hrs by LC/MS analysis; assay type: ADME, cell-based, Hepatocyte
[5] = Drug metabolism in rat hepatocytes treated with 4-(2-((3R,5R,6S)-1-((S)-2-(tert-Butylsulfonyl)-1-cyclopropylethyl)-6-(4-chloro-3-fluorophenyl)-5-(3-chlorophenyl)-3-methyl-2-oxopiperidin-3-yl)acetamido)-2-methoxybenzoic acid at 10 uM after 2 hrs by LC/MS analysis; assay type: ADME, cell-based, Hepatocyte
[6] = Drug metabolism in cynomolgus monkey hepatocytes treated with 4-(2-((3R,5R,6S)-1-((S)-2-(tert-Butylsulfonyl)-1-cyclopropylethyl)-6-(4-chloro-3-fluorophenyl)-5-(3-chlorophenyl)-3-methyl-2-oxopiperidin-3-yl)acetamido)-2-methoxybenzoic acid at 10 uM after 2 hrs by LC/MS analysis; assay type: ADME, cell-based, Macaca fascicularis, Hepatocyte
[7] = Drug metabolism in human hepatocytes treated with AMG 232 at 10 uM after 2 hrs by LC/MS analysis; assay type: ADME, cell-based, Hepatocyte
[8] = Drug metabolism in human hepatocytes treated with 4-(2-((3R,5R,6S)-1-((S)-2-(tert-Butylsulfonyl)-1-cyclopropylethyl)-6-(4-chloro-3-fluorophenyl)-5-(3-chlorophenyl)-3-methyl-2-oxopiperidin-3-yl)acetamido)-2-methoxybenzoic acid at 10 uM after 2 hrs by LC/MS analysis; assay type: ADME, cell-based, Hepatocyte
[9] = Drug metabolism in cynomolgus monkey hepatocytes treated with AMG 232 at 10 uM after 2 hrs by LC/MS analysis; assay type: ADME, cell-based, Macaca fascicularis, Hepatocyte
[10] = biological target: T1, CYP3A4 (Homo sapiens, UniProt P08684); experiment: Inhibition of CYP3A4 (unknown origin) at 3 uM; assay type: ADME
[11] = biological target: T2, PXR (NR1I2) (Homo sapiens, UniProt O75469); experiment: Activation of human PXR at 2 uM relative to control; assay type: ADME; conditions: read-out: Activity
T2 sequence (O75469 whole entry): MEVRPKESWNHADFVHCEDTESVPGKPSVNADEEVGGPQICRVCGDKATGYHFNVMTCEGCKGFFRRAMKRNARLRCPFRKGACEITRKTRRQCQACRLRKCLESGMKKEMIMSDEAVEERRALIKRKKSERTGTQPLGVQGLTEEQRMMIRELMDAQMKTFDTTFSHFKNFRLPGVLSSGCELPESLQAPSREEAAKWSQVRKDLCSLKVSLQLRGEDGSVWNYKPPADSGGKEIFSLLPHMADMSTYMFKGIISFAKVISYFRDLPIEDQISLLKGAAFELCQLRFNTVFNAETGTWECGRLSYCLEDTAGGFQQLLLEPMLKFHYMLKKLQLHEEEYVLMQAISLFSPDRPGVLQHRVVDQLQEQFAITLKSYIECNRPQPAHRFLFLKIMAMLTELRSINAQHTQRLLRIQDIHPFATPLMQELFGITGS

[12] = biological target: T1, CYP3A4; experiment: Time-dependent inhibition of CYP3A4 (unknown origin) assessed as remaining activity at 10 uM after 30 mins; assay type: ADME; conditions: read-out: Activity
[13] = Oral bioavailability in dog; assay type: ADME, organism-based, Canis lupus familiaris; conditions: in vivo
[14] = tested on: Mus musculus; experiment: Toxicity in human SJSA1 cells xenografted athymic nude mouse assessed as body weight loss at 10 to 50 mg/kg, po qd for 4 days; assay type: organism-based, SJSA-1; set-up: dose 10-50 mg/kg, route oral; conditions: in vivo, 96 h
[15] = Drug metabolism in rat hepatocytes assessed as demethylated metabolite M3 formation at 10 uM after 2 hrs by LC/MS analysis; assay type: ADME, cell-based, Hepatocyte
[16] = Drug metabolism in human hepatocytes assessed as demethylated metabolite M3 formation at 10 uM after 2 hrs by LC/MS analysis; assay type: ADME, cell-based, Hepatocyte
[17] = animal or person; conditions: Homo sapiens, HCT-116, po, 240 h
[18] = tested on: SJSA-1; experiment: Antitumor activity against human SJSA1 cells xenografted in athymic nude mouse assessed as complete tumor regression at 25 to 50 mg/kg, po qd for 4 days measured after 30 days; assay type: functional, organism-based
[19] = biological target: T3, E3 ubiquitin-protein ligase Mdm2 (Homo sapiens, UniProt Q00987)
[20] = Antiproliferative activity against human HCT116 cells expressing p53 wild type after 16 hrs by BrdU proliferation assay; assay type: functional, cell-based; conditions: HCT-116, 16 h
[21] = Oral bioavailability in mouse; assay type: ADME, organism-based; conditions: in vivo
[22] = Drug metabolism in dog hepatocytes assessed as demethylated metabolite M3 formation at 10 uM after 2 hrs by LC/MS analysis; assay type: ADME, cell-based, Canis lupus familiaris, Hepatocyte
[23] = Antiproliferative activity p53 -deficient human HCT116 cells after 16 hrs by BrdU proliferation assay; assay type: functional, cell-based; conditions: HCT-116, 16 h
[24] = biological target: T3, E3 ubiquitin-protein ligase Mdm2; experiment: Binding affinity to human MDM2 by isothermal titration calorimetry
[25] = Drug metabolism in rat hepatocytes assessed as oxidative metabolite M2 formation at 10 uM after 2 hrs by LC/MS analysis; assay type: ADME, cell-based, Hepatocyte
[26] = Drug metabolism in cynomolgus monkey hepatocytes assessed as demethylated metabolite M3 formation at 10 uM after 2 hrs by LC/MS analysis; assay type: ADME, cell-based, Macaca fascicularis, Hepatocyte
[27] = Drug metabolism in dog hepatocytes assessed as oxidative metabolite M2 formation at 10 uM after 2 hrs by LC/MS analysis; assay type: ADME, cell-based, Canis lupus familiaris, Hepatocyte
[28] = Drug metabolism in cynomolgus monkey hepatocytes assessed as oxidative metabolite M2 formation at 10 uM after 2 hrs by LC/MS analysis; assay type: ADME, cell-based, Macaca fascicularis, Hepatocyte
[29] = Drug metabolism in human hepatocytes assessed as oxidative metabolite M2 formation at 10 uM after 2 hrs by LC/MS analysis; assay type: ADME, cell-based, Hepatocyte
[30] = Clearance in iv dosed dog; assay type: ADME, organism-based, Canis lupus familiaris; conditions: in vivo
[31] = Antitumor activity against human HCT116 cells xenografted in athymic nude mouse assessed as tumor growth inhibition at 100 mg/kg, po qd starting on day 10 of tumor implantation; assay type: functional; conditions: HCT-116, 240 h, read-out: TGI
[32] = Clearance in iv dosed mouse; assay type: ADME, organism-based; conditions: in vivo
[33] = tested on: Hepatocyte; experiment: cells; conditions: Homo sapiens
[34] = biological target: T3, E3 ubiquitin-protein ligase Mdm2; remark: listed apart in the source
[35] = biological target: T3, E3 ubiquitin-protein ligase Mdm2; remark: listed apart in the source

T1 sequence (P08684 whole entry): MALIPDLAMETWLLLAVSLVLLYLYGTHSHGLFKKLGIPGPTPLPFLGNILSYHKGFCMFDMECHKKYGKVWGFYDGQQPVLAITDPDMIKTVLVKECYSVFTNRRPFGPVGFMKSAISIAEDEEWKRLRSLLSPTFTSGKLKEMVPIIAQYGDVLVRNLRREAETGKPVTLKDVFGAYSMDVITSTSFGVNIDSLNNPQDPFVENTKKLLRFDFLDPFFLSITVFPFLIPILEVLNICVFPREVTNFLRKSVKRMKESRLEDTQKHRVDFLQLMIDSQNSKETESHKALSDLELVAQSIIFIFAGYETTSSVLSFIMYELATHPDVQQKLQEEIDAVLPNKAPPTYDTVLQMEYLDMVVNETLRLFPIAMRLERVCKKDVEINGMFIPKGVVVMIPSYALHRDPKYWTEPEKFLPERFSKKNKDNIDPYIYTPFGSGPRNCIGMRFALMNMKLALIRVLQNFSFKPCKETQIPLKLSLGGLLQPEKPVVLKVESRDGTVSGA
T3 sequence (Q00987 whole entry): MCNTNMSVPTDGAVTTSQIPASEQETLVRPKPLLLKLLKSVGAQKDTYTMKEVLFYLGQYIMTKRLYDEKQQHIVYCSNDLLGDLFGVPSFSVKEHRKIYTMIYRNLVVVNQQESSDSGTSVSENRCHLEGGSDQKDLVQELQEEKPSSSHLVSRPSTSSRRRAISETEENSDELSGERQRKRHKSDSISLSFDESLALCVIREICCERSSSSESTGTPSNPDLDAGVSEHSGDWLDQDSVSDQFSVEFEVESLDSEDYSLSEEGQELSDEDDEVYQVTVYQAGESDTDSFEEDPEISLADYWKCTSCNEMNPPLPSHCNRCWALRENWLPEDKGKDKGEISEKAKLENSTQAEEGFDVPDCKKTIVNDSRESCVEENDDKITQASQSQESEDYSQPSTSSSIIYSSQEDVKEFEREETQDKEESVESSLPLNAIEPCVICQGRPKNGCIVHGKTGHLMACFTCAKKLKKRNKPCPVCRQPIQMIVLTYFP

## CC(C)(C)S(=O)(=O)C[C@H](C1CC1)N1C(=O)[C@@](C)(CC(=O)N[C@H]2C[C@@H](C(=O)O)C2)C[C@H](c2cccc(Cl)c2)[C@H]1c1ccc(Cl)cc1
[1]
  IC50: 22 nM

## CC(C)(C)S(=O)(=O)C[C@H](C1CC1)N1C(=O)[C@@](C)(CC(=O)N[C@H]2CC[C@H](C(=O)O)CC2)C[C@H](c2cccc(Cl)c2)[C@H]1c1ccc(Cl)cc1
[1]
  IC50: 7.5 nM

## CC(C)[C@@H](CS(=O)(=O)C(C)C)N1C(=O)[C@@](C)(CC(=O)OC2O[C@H](C(=O)O)[C@@H](O)[C@H](O)[C@H]2O)C[C@H](c2cccc(Cl)c2)[C@H]1c1ccc(Cl)cc1 (stereo partly drawn)
[2]
  Drug metabolism: metabolite_detected
[3]
  Drug metabolism: metabolite_detected
[4]
  Drug metabolism: metabolite_detected
[5]
  Drug metabolism: metabolite_detected
[6]
  Drug metabolism: metabolite_detected
[7]
  Drug metabolism: metabolite_detected
[8]
  Drug metabolism: metabolite_detected
[9]
  Drug metabolism: metabolite_detected

## CC(C)(C)S(=O)(=O)C[C@H](C1CC1)N1C(=O)[C@@](C)(CC(=O)Nc2cccc(C(=O)O)c2)C[C@H](c2cccc(Cl)c2)[C@H]1c1ccc(Cl)cc1
[1]
  IC50: 9.7 nM

## CC(C)(C)S(=O)(=O)C[C@H](C1CC1)N1C(=O)[C@@](C)(CC(=O)N2CCC(C(=O)O)CC2)C[C@H](c2cccc(Cl)c2)[C@H]1c1ccc(Cl)cc1
[1]
  IC50: 11.7 nM

## COc1cc(NC(=O)C[C@@]2(C)C[C@H](c3cccc(Cl)c3F)[C@@H](c3ccc(Cl)cc3)N([C@H](CS(=O)(=O)C(C)(C)C)C3CC3)C2=O)ccc1C(=O)O
[10]
  inhibition at 3 µM: 14%
[11]
  activity at 2 µM: 0%
[12]
  activity at 0.5 h, 10 µM: 72%

## CC(C)(C)S(=O)(=O)C[C@H](C1CC1)N1C(=O)[C@@](C)(CC(=O)Nc2ccc(CC(=O)O)cc2)C[C@H](c2cccc(Cl)c2)[C@H]1c1ccc(Cl)cc1
[1]
  IC50: 2.7 nM

## COc1cc(NC(=O)C[C@@]2(C)C[C@H](c3cccc(Cl)c3)[C@@H](c3ccc(Cl)c(F)c3)N([C@H](CS(=O)(=O)C(C)(C)C)C3CC3)C2=O)ccc1C(=O)O
[13]
  bioavailability: 45%
[14]
  Activity: <= 5%
[15]
  Drug metabolism: metabolite_detected
[16]
  Drug metabolism: metabolite_detected
[17]
  ED50: 10 mg/kg
[18]
  Activity: Active
[10]
  inhibition at 3 µM: < 10%
[19]
  IC50: 0.6 nM
[20]
  IC50: 2 nM
[21]
  bioavailability: 30%
[22]
  Drug metabolism: metabolite_detected
[11]
  activity at 2 µM: 0%
[23]
  IC50: > 25 µM
[24]
  Kd: 0.038 nM
[25]
  Drug metabolism: metabolite_detected
[12]
  activity at 0.5 h, 10 µM: 63%
[26]
  Drug metabolism: metabolite_detected
[27]
  Drug metabolism: metabolite_detected
[28]
  Drug metabolism: metabolite_detected
[29]
  Drug metabolism: metabolite_detected
[30]
  clearance: 11.5 mL/min/kg
[31]
  inhibition in vivo at 100 mg/kg: 100%
[32]
  clearance: 0.433 mL/min/kg

## COc1cc(NC(=O)C[C@@]2(C)C[C@H](c3cccc(Cl)c3)[C@@H](c3ccc(Cl)cc3)N([C@H](CS(=O)(=O)C(C)(C)C)C3CC3)C2=O)ccc1C(=O)O
[10]
  inhibition at 3 µM: 14%
[1]
  IC50: 1.9 nM
[11]
  activity at 2 µM: 14%
[12]
  activity at 0.5 h, 10 µM: 85%

## CC(C)(C)S(=O)(=O)C[C@H](C1CC1)N1C(=O)[C@@](C)(CC(=O)O)C[C@H](c2cccc(Cl)c2F)[C@H]1c1ccc(Cl)cc1
[1]
  IC50: 0.8 nM
[33]
  CLint: 27 µL/min/10⁶ cells
[34]
  IC50: 6.4 nM
[35]
  IC50: < 0.1 nM

## CC(C)(C)S(=O)(=O)C[C@H](C1CC1)N1C(=O)[C@@](C)(CC(=O)Nc2ccc(C#N)cc2)C[C@H](c2cccc(Cl)c2)[C@H]1c1ccc(Cl)cc1
[1]
  IC50: 138 nM

Source: ChEMBL document CHEMBL3407331, “Discovery of AM-7209, a potent and selective 4-amidobenzoic acid inhibitor of the MDM2-p53 interaction” (J Med Chem, 2014)
